From the supplement of paper PMC10307832

Columns and labels:
Assay in all cases: relative viability (nuclei count vs DMSO), 5 days (fraction); higher = more cells survive
[1] = compound: C1=CC(=CC=C1NC(=S)NNC2=C(C=C(C=C2[N+](=O)[O-])C(F)(F)F)[N+](=O)[O-])F [Kobe2602] + Nc1nc2[nH]cc(CCc3ccc(C(=O)N[C@@H](CCC(=O)O)C(=O)O)cc3)c2c(=O)[nH]1 [Pemetrexed] (partner 0.2 µM)
In short: (§1)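 Relative viability equals treated-well nuclei counts divided by vehicle-well nuclei counts. Counts came from 4× images of lung cancer cell lines grown in 1536-well plates for 5 days after pin-tool dosing on the day after seeding. Dosing used one drug alone or a fixed anchor-drug dose plus five library-drug doses (not always all listed) in √10 steps, and values are medians of duplicate plates.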

[2] = compound: O[C@@H](COc1cccc2ncccc12)CN1CCN([C@@H]2c3ccccc3[C@@H]3[C@H](c4ccccc42)C3(F)F)CC1 [Zosuquidar] + CCNC(=O)c1noc(-c2cc(C(C)C)c(O)cc2O)c1-c1ccc(CN2CCOCC2)cc1 [Luminespib] (partner 0.01 µM)
In short: as §1

[3] = compound: COc1cc2nccc(Oc3ccc(NC(=O)C4(C(=O)Nc5ccc(F)cc5)CC4)cc3)c2cc1OC [Cabozantinib] + CCNC(=O)c1noc(-c2cc(C(C)C)c(O)cc2O)c1-c1ccc(CN2CCOCC2)cc1 [Luminespib] (partner 0.01 µM)
In short: as §1

[4] = compound: COc1cc2nccc(Oc3ccc(NC(=O)C4(C(=O)Nc5ccc(F)cc5)CC4)cc3)c2cc1OC [Cabozantinib] + CC(C)C[C@H](NC(=O)[C@H](Cc1ccccc1)NC(=O)c1cnccn1)B(O)O [Bortezomib] (partner 0.002 µM)
In short: as §1

Cell Line	relative viability ([1]; first compound 0.2 µM)	relative viability ([1]; first compound 0.6325 µM)	relative viability ([1]; first compound 2 µM)	relative viability ([1]; first compound 6.325 µM)	relative viability ([1]; first compound 20 µM)	relative viability ([2]; first compound 0.01 µM)	relative viability ([2]; first compound 0.03162 µM)	relative viability ([2]; first compound 0.1 µM)	relative viability ([2]; first compound 0.3162 µM)	relative viability ([2]; first compound 1 µM)	relative viability ([3]; first compound 0.02 µM)	relative viability ([3]; first compound 0.06325 µM)	relative viability ([3]; first compound 0.2 µM)	relative viability ([3]; first compound 0.6325 µM)	relative viability ([3]; first compound 2 µM)	relative viability ([4]; first compound 0.02 µM)	relative viability ([4]; first compound 0.06325 µM)	relative viability ([4]; first compound 0.2 µM)	relative viability ([4]; first compound 0.6325 µM)	relative viability ([4]; first compound 2 µM)
BEN	0.736	0.803	0.724	0.846	0.98	0.374	0.218	0.381	0.274	0.329	0.3	0.414	0.326	0.352	0.257	0.679	1.08	0.902	0.639	0.795
CAL-12T	1.2	1.14	1.24	1.1	1.14	0.443	0.575	0.513	0.221	0.504	0.832	0.574	0.37	0.581	1.37	0.876	1.25	0.882	–	1.06
COR-L23	0.209	0.2	0.212	0.204	0.204	0.619	0.631	0.747	0.777	0.776	0.733	0.823	0.723	0.675	0.658	1.25	1	1.01	1.06	1.07
COR-L 105	1.01	1.27	0.923	1.15	1.16	0.923	0.789	0.757	0.858	0.782	0.924	0.823	–	0.915	0.609	0.799	0.999	–	0.702	0.837
ChaGo-K-1	0.27	0.26	0.267	0.267	0.266	0.714	0.625	0.652	0.578	0.512	0.638	0.757	0.737	0.765	0.447	0.829	1.25	0.909	0.804	1.04
EKVX	0.416	0.394	0.404	0.41	0.408	0.926	0.8	0.749	0.812	0.832	0.859	1.02	0.918	0.751	0.893	0.996	1.19	0.942	1.1	1
EMC-BAC-2	0.459	0.453	0.445	0.492	0.457	1.19	1.19	1.05	1.29	1.11	1.23	1.15	1.24	1.1	1.09	0.982	1.2	1.01	1.07	1.17
EPLC-272H	0.353	0.35	0.301	0.318	0.279	0.39	0.362	0.514	0.361	0.266	0.418	0.282	0.14	0.476	0.256	0.98	0.937	0.756	1.04	1.04
H3255	0.549	0.544	0.57	0.629	0.584	1.02	0.925	0.666	1.05	0.814	0.885	1.13	–	0.905	0.893	0.75	0.958	–	0.831	0.901
HARA	0.228	0.296	0.255	0.239	0.313	0.586	–	0.837	0.92	0.649	0.722	0.421	0.615	0.92	0.548	1.18	1.19	0.975	1.18	1.11
HCC-15	0.238	0.216	0.223	0.229	0.211	0.122	0.5	0.21	0.222	0.533	0.374	0.361	0.515	0.394	0.214	0.974	1.1	0.995	1.02	1.09
HCC-44	0.595	0.684	0.653	0.671	0.609	1.14	1.16	1.17	1.01	1.08	–	1.15	1.08	1	1.02	1.01	0.968	0.877	0.946	0.943
HCC-827	0.293	0.241	0.281	0.261	0.261	0.518	0.576	0.501	0.704	0.7	0.898	1.02	–	0.824	0.565	0.981	1.1	–	1.11	1.06
HOP-62	0.43	0.336	0.312	0.323	0.316	0.878	0.947	0.914	0.99	0.896	1.03	1	0.902	0.881	0.838	0.779	0.828	0.56	1.07	1.06
LC-2-ad	0.292	0.296	0.285	0.275	0.264	1.05	0.85	0.981	0.999	0.987	–	1.1	1.03	0.914	0.956	1.06	1.17	0.863	0.865	0.821
LCLC-97TM1	0.204	0.15	–	0.14	0.161	0.765	0.755	0.742	0.814	0.913	0.784	0.817	0.875	0.805	0.638	–	1.02	0.653	0.967	0.96

Cell Line	relative viability ([1]; first compound 0.2 µM)	relative viability ([1]; first compound 0.6325 µM)	relative viability ([1]; first compound 2 µM)	relative viability ([1]; first compound 6.325 µM)	relative viability ([1]; first compound 20 µM)	relative viability ([2]; first compound 0.01 µM)	relative viability ([2]; first compound 0.03162 µM)	relative viability ([2]; first compound 0.1 µM)	relative viability ([2]; first compound 0.3162 µM)	relative viability ([2]; first compound 1 µM)	relative viability ([3]; first compound 0.02 µM)	relative viability ([3]; first compound 0.06325 µM)	relative viability ([3]; first compound 0.2 µM)	relative viability ([3]; first compound 0.6325 µM)	relative viability ([3]; first compound 2 µM)	relative viability ([4]; first compound 0.02 µM)	relative viability ([4]; first compound 0.06325 µM)	relative viability ([4]; first compound 0.2 µM)	relative viability ([4]; first compound 0.6325 µM)	relative viability ([4]; first compound 2 µM)
LCLC-103H	0.494	0.502	0.454	0.438	0.449	0.983	0.957	0.74	0.93	1	1.07	0.962	1.03	0.983	0.905	1.09	1.12	1.14	1.03	1.03
LOU-NH91	0.351	0.361	0.379	0.391	0.392	0.331	0.317	–	0.343	0.355	0.363	0.358	–	0.385	0.271	0.484	0.55	0.457	0.508	0.551
LU99A	0.179	0.169	0.186	0.207	0.163	0.201	0.22	0.256	0.276	0.303	0.283	0.268	0.238	0.196	0.261	1.13	1.16	1.17	0.986	1.06
LXF-289	0.871	0.896	0.88	0.861	0.896	0.665	0.762	0.675	0.711	0.581	0.683	0.764	0.689	0.715	0.662	1.09	1.03	1.01	0.956	1
NCI-H23	0.653	0.8	0.82	0.584	0.742	0.206	0.223	0.223	0.222	0.266	–	0.218	0.199	0.229	0.205	–	1.31	0.996	0.959	0.945
NCI-H322M	0.63	0.646	0.605	0.652	0.631	0.754	0.886	0.664	0.862	0.727	0.922	1.14	0.817	0.969	0.941	1.2	1.34	–	1.17	1.36
NCI-H441	0.285	0.217	0.244	0.279	0.288	0.355	0.244	0.403	0.286	0.326	0.326	0.404	0.306	0.324	0.375	–	0.494	0.776	0.76	0.385
NCI-H460	–	0.0647	0.0722	0.0653	0.0677	0.0346	0.0269	0.0352	0.0358	0.0277	0.0282	0.0334	0.0334	0.0351	0.0448	1.38	1.15	1.12	1.13	1.13
NCI-H520	0.709	0.675	0.559	0.724	0.772	0.226	0.192	–	0.193	0.206	0.257	0.198	0.249	0.237	0.189	0.878	0.73	0.703	0.483	0.515
NCI-H596	0.541	0.523	0.568	0.505	0.495	1.1	–	0.804	0.983	0.931	0.905	1.26	1.02	1.08	0.907	0.966	1.07	1.02	0.802	0.996
NCI-H647	0.178	0.22	0.174	0.172	0.184	0.116	0.165	0.181	0.142	0.177	0.155	0.138	0.264	0.251	0.368	1.17	1.17	1.19	0.893	1.13
NCI-H650	0.816	1.04	0.867	1.05	0.889	0.96	0.764	0.809	0.777	0.904	–	0.784	0.952	0.751	0.724	0.691	0.998	0.861	0.737	0.627
NCI-H661	0.893	0.947	0.913	0.932	0.924	0.911	0.875	0.875	0.938	0.891	0.904	0.929	1.01	0.957	0.938	0.799	0.855	0.915	0.683	0.799
NCI-H838	0.257	0.251	0.261	0.246	0.232	0.329	0.328	0.28	0.304	0.284	0.369	0.342	0.3	0.259	0.34	0.746	0.95	0.941	0.685	1.04
NCI-H1355	1.06	1.07	0.992	0.983	0.968	0.741	0.752	0.644	0.822	0.824	0.806	0.852	0.682	0.738	0.871	1.05	1.29	1.12	1.23	1.18
NCI-H1437	0.303	0.317	0.313	0.298	0.295	1.1	1.14	1.05	1.13	1.11	1.14	1.14	1.13	1.09	1	0.533	0.635	0.549	0.565	0.64
